Measured values from PubChem BioAssay AID256 (DTP/NCI, 2004).
“And” between values parts separate entries of the source, which are not always exact repeats. Equal values may be shown once. Inconclusive results and toxic doses are left out.

System: CD2F1 mice, L1210 leukemia ip, survival T/C
Test: NCI In Vivo Anticancer Drug Screen. Data for tumor model L1210 Leukemia (intraperitoneal) in CD2F1 (CDF1) mice
Settings: higher = longer survival
Method: The antitumor activity of compounds was measured in mice bearing transplantable tumors. Survival or tumor size were measured and the results are expressed as the measurement made in the treated group (T) divided by the measurement made in the vehicle treated control group (C). The tumor model used in this assay is L1210 Leukemia (intraperitoneal) in CD2F1 (CDF1) mice

**Q.** Which results are given for NC(=O)c1csc(C2OC(CO)C(O)C2O)n1 (stereo not drawn)?
**A.** T/C (endpoint: mean survival time, dose: 12.5 mg/kg/injection, schedule: Q01DX005 (ip), vehicle: water): 111 % of control; T/C (endpoint: mean survival time, dose: 25.0 mg/kg/injection, schedule: Q01DX005 (ip), vehicle: water): 120 % of control; T/C (endpoint: mean survival time, dose: 25.0 mg/kg/injection, schedule: Q01DX009 (ip), vehicle: water): 158 % of control and 162 % of control; T/C (endpoint: mean survival time, dose: 50.0 mg/kg/injection, schedule: Q01DX005 (ip), vehicle: water): 152 % of control; T/C (endpoint: mean survival time, dose: 50.0 mg/kg/injection, schedule: Q01DX009 (ip), vehicle: water): 166 % of control and 167 % of control; T/C (endpoint: mean survival time, dose: 100.0 mg/kg/injection, schedule: Q01DX009 (ip), vehicle: saline): 183 % of control; T/C (endpoint: mean survival time, dose: 100.0 mg/kg/injection, schedule: Q01DX009 (ip), vehicle: water): 182 % of control; T/C (endpoint: mean survival time, dose: 150.0 mg/kg/injection, schedule: Q01DX005 (ip), vehicle: water): 150 % of control; T/C (endpoint: mean survival time, dose: 200.0 mg/kg/injection, schedule: Q01DX009 (ip), vehicle: saline): 182 % of control; T/C (endpoint: mean survival time, dose: 200.0 mg/kg/injection, schedule: Q01DX009 (ip), vehicle: water): 203 % of control and 219 % of control; T/C (endpoint: mean survival time, dose: 300.0 mg/kg/injection, schedule: Q01DX005 (ip), vehicle: water): 155 % of control; T/C (endpoint: mean survival time, dose: 400.0 mg/kg/injection, schedule: Q01DX005 (ip), vehicle: water): 191 % of control and 192 % of control and 216 % of control; T/C (endpoint: mean survival time, dose: 400.0 mg/kg/injection, schedule: Q01DX009 (ip), vehicle: saline): 224 % of control; T/C (endpoint: mean survival time, dose: 400.0 mg/kg/injection, schedule: Q01DX009 (ip), vehicle: water): 200 % of control and 229 % of control; T/C (endpoint: mean survival time, dose: 600.0 mg/kg/injection, schedule: Q01DX009 (ip), vehicle: saline): 230 % of control; T/C (endpoint: mean survival time, dose: 800.0 mg/kg/injection, schedule: Q01DX005 (ip), vehicle: water): 206 % of control and 247 % of control; T/C (endpoint: mean survival time, dose: 800.0 mg/kg/injection, schedule: Q01DX009 (ip), vehicle: saline): 171 % of control; T/C (endpoint: mean survival time, dose: 800.0 mg/kg/injection, schedule: Q01DX009 (ip), vehicle: water): 185 % of control; T/C (endpoint: median survival time, dose: 4.0 mg/kg/injection, schedule: Q03HX024 (ip), vehicle: water): 150 % of control; T/C (endpoint: median survival time, dose: 8.0 mg/kg/injection, schedule: Q03HX024 (ip), vehicle: water): 186 % of control; T/C (endpoint: median survival time, dose: 16.0 mg/kg/injection, schedule: Q03HX024 (ip), vehicle: water): 168 % of control; T/C (endpoint: median survival time, dose: 16.0 mg/kg/injection, schedule: Q04DX003 (ip), vehicle: water): 101 % of control; T/C (endpoint: median survival time, dose: 16.0 mg/kg/injection, schedule: Q#A X018 (ip), vehicle: water): 174 % of control; T/C (endpoint: median survival time, dose: 22.25 mg/kg/injection, schedule: Q01DX005 (ip), vehicle: water): 97 % of control; T/C (endpoint: median survival time, dose: 23.44 mg/kg/injection, schedule: Q01DX005 (ip), vehicle: water): 98 % of control; T/C (endpoint: median survival time, dose: 32.0 mg/kg/injection, schedule: Q01DX001 (iv), vehicle: water): 117 % of control; T/C (endpoint: median survival time, dose: 32.0 mg/kg/injection, schedule: Q01DX005 (ip), vehicle: water): 152 % of control; T/C (endpoint: median survival time, dose: 32.0 mg/kg/injection, schedule: Q01DX009 (ip), vehicle: water): 159 % of control and 176 % of control; T/C (endpoint: median survival time, dose: 32.0 mg/kg/injection, schedule: Q01DX009 (oral), vehicle: water): 163 % of control; T/C (endpoint: median survival time, dose: 32.0 mg/kg/injection, schedule: Q03HX024 (ip), vehicle: water): 184 % of control; T/C (endpoint: median survival time, dose: 32.0 mg/kg/injection, schedule: Q04DX003 (ip), vehicle: water): 109 % of control; T/C (endpoint: median survival time, dose: 32.0 mg/kg/injection, schedule: Q#A X018 (ip), vehicle: water): 195 % of control; T/C (endpoint: median survival time, dose: 44.5 mg/kg/injection, schedule: Q01DX005 (ip), vehicle: water): 102 % of control; T/C (endpoint: median survival time, dose: 64.0 mg/kg/injection, schedule: Q01DX001 (ip), vehicle: water): 110 % of control; T/C (endpoint: median survival time, dose: 64.0 mg/kg/injection, schedule: Q01DX001 (iv), vehicle: water): 120 % of control; T/C (endpoint: median survival time, dose: 64.0 mg/kg/injection, schedule: Q01DX001 (oral), vehicle: water): 111 % of control; T/C (endpoint: median survival time, dose: 64.0 mg/kg/injection, schedule: Q01DX005 (ip), vehicle: water): 163 % of control; T/C (endpoint: median survival time, dose: 64.0 mg/kg/injection, schedule: Q01DX005 (iv), vehicle: water): 151 % of control; T/C (endpoint: median survival time, dose: 64.0 mg/kg/injection, schedule: Q01DX005 (oral), vehicle: water): 150 % of control; T/C (endpoint: median survival time, dose: 64.0 mg/kg/injection, schedule: Q01DX009 (oral), vehicle: water): 188 % of control; T/C (endpoint: median survival time, dose: 64.0 mg/kg/injection, schedule: Q03HX024 (ip), vehicle: water): 219 % of control; T/C (endpoint: median survival time, dose: 64.0 mg/kg/injection, schedule: Q04DX003 (ip), vehicle: water): 114 % of control; T/C (endpoint: median survival time, dose: 64.0 mg/kg/injection, schedule: Q#A X018 (ip), vehicle: water): 210 % of control; T/C (endpoint: median survival time, dose: 89.0 mg/kg/injection, schedule: Q01DX005 (ip), vehicle: water): 94 % of control; T/C (endpoint: median survival time, dose: 93.75 mg/kg/injection, schedule: Q01DX005 (ip), vehicle: water): 101 % of control; T/C (endpoint: median survival time, dose: 125.0 mg/kg/injection, schedule: Q01DX005 (ip), vehicle: water): 168 % of control; T/C (endpoint: median survival time, dose: 128.0 mg/kg/injection, schedule: Q01DX001 (ip), vehicle: water): 114 % of control; T/C (endpoint: median survival time, dose: 128.0 mg/kg/injection, schedule: Q01DX001 (oral), vehicle: water): 123 % of control; T/C (endpoint: median survival time, dose: 128.0 mg/kg/injection, schedule: Q01DX005 (ip), vehicle: water): 164 % of control; T/C (endpoint: median survival time, dose: 128.0 mg/kg/injection, schedule: Q01DX005 (iv), vehicle: water): 166 % of control; T/C (endpoint: median survival time, dose: 128.0 mg/kg/injection, schedule: Q01DX005 (oral), vehicle: water): 163 % of control; T/C (endpoint: median survival time, dose: 128.0 mg/kg/injection, schedule: Q01DX009 (oral), vehicle: water): 217 % of control; T/C (endpoint: median survival time, dose: 128.0 mg/kg/injection, schedule: Q03HX024 (ip), vehicle: water): 231 % of control; T/C (endpoint: median survival time, dose: 128.0 mg/kg/injection, schedule: Q04DX003 (ip), vehicle: water): 118 % of control; T/C (endpoint: median survival time, dose: 128.0 mg/kg/injection, schedule: Q#A X018 (ip), vehicle: water): 240 % of control; T/C (endpoint: median survival time, dose: 150.0 mg/kg/injection, schedule: Q01DX005 (ip), vehicle: water): 157 % of control; T/C (endpoint: median survival time, dose: 178.0 mg/kg/injection, schedule: Q01DX005 (ip), vehicle: water): 98 % of control; T/C (endpoint: median survival time, dose: 250.0 mg/kg/injection, schedule: Q01DX005 (ip), vehicle: water): 158 % of control and 179 % of control; T/C (endpoint: median survival time, dose: 256.0 mg/kg/injection, schedule: Q01DX001 (ip), vehicle: water): 117 % of control; T/C (endpoint: median survival time, dose: 256.0 mg/kg/injection, schedule: Q01DX001 (oral), vehicle: water): 122 % of control; T/C (endpoint: median survival time, dose: 256.0 mg/kg/injection, schedule: Q01DX005 (ip), vehicle: water): 183 % of control; T/C (endpoint: median survival time, dose: 256.0 mg/kg/injection, schedule: Q01DX005 (iv), vehicle: water): 190 % of control; T/C (endpoint: median survival time, dose: 256.0 mg/kg/injection, schedule: Q01DX005 (oral), vehicle: water): 188 % of control; T/C (endpoint: median survival time, dose: 256.0 mg/kg/injection, schedule: Q01DX009 (oral), vehicle: water): 227 % of control; T/C (endpoint: median survival time, dose: 256.0 mg/kg/injection, schedule: Q03HX024 (ip), vehicle: water): 246 % of control; T/C (endpoint: median survival time, dose: 256.0 mg/kg/injection, schedule: Q#A X018 (ip), vehicle: water): 252 % of control; T/C (endpoint: median survival time, dose: 300.0 mg/kg/injection, schedule: Q01DX005 (ip), vehicle: water): 166 % of control; T/C (endpoint: median survival time, dose: 356.0 mg/kg/injection, schedule: Q01DX005 (ip), vehicle: water): 101 % of control; T/C (endpoint: median survival time, dose: 375.0 mg/kg/injection, schedule: Q01DX005 (ip), vehicle: water): 92 % of control; T/C (endpoint: median survival time, dose: 500.0 mg/kg/injection, schedule: Q01DX005 (ip), vehicle: water): 175 % of control and 201 % of control; T/C (endpoint: median survival time, dose: 512.0 mg/kg/injection, schedule: Q01DX005 (ip), vehicle: water): 190 % of control; T/C (endpoint: median survival time, dose: 512.0 mg/kg/injection, schedule: Q01DX005 (iv), vehicle: water): 217 % of control; T/C (endpoint: median survival time, dose: 512.0 mg/kg/injection, schedule: Q01DX005 (oral), vehicle: water): 195 % of control; T/C (endpoint: median survival time, dose: 512.0 mg/kg/injection, schedule: Q01DX009 (oral), vehicle: water): 154 % of control; T/C (endpoint: median survival time, dose: 512.0 mg/kg/injection, schedule: Q03HX024 (ip), vehicle: water): 284 % of control; T/C (endpoint: median survival time, dose: 512.0 mg/kg/injection, schedule: Q04DX003 (ip), vehicle: water): 180 % of control; T/C (endpoint: median survival time, dose: 512.0 mg/kg/injection, schedule: Q#A X018 (ip), vehicle: water): 269 % of control; T/C (endpoint: median survival time, dose: 600.0 mg/kg/injection, schedule: Q01DX005 (ip), vehicle: water): 188 % of control; T/C (endpoint: median survival time, dose: 1000.0 mg/kg/injection, schedule: Q01DX005 (ip), vehicle: water): 188 % of control and 191 % of control; T/C (endpoint: median survival time, dose: 1024.0 mg/kg/injection, schedule: Q01DX005 (ip), vehicle: water): 205 % of control; T/C (endpoint: median survival time, dose: 1024.0 mg/kg/injection, schedule: Q01DX005 (iv), vehicle: water): 226 % of control; T/C (endpoint: median survival time, dose: 1024.0 mg/kg/injection, schedule: Q01DX005 (oral), vehicle: water): 213 % of control; T/C (endpoint: median survival time, dose: 1024.0 mg/kg/injection, schedule: Q01DX009 (oral), vehicle: water): 110 % of control; T/C (endpoint: median survival time, dose: 1024.0 mg/kg/injection, schedule: Q04DX003 (ip), vehicle: water): 191 % of control; T/C (endpoint: median survival time, dose: 2048.0 mg/kg/injection, schedule: Q01DX001 (oral), vehicle: water): 155 % of control; T/C (endpoint: median survival time, dose: 2048.0 mg/kg/injection, schedule: Q01DX005 (oral), vehicle: water): 98 % of control; T/C (endpoint: median survival time, dose: 2048.0 mg/kg/injection, schedule: Q01DX009 (ip), vehicle: water): 109 % of control; T/C (endpoint: median survival time, dose: 2048.0 mg/kg/injection, schedule: Q04DX003 (ip), vehicle: water): 223 % of control
